According to patent publication US20020039746A1, “Methods for identifying peripheral benzodiazepine receptor binding agents” (priority 2000, published 2002):
pIC50: −log10 of the molar value. Entries after “also recorded” stand apart in the source; their conditions may differ.

Assays:
[1] = tested on: S11 cells and vector control cells; experiment: caspase activation (DEVD cleavage) in S11 and vector control cells; format: cell-based
Experimental: (§1) Caspases are apoptosis-activated proteases, and caspase induction in cells is often indicative that the cells are undergoing programmed cell death (apoptosis). Apoptosis can be induced by a variety of compounds, including etoposide. S11 or vector control cells were plated at 30,000 cells/well in 96 well plates and grown for 20 hours. […] At this time, media was aspirated and caspase activity was measured by addition of 23 uM DEVD, a peptide that is fluorescent when cleaved by caspase 3, in PBS along with 0.03% digitonin. Fluorescence was measured in an Fmax™ 96-well plate reader (Molecular Devices, Sunnyvale, Calif.) using a kinetic assay. Total number of cells was determined using propidium iodide staining and used to normalize for total number of cells in each well.
Etoposide and ceramide treatments were as described above.

[2] = tested on: inducible PBzR overexpressing SH-SY5Y-derived cells (IPBR-1); experiment: apoptogen-driven caspase activation in tetracycline-inducible PBzR overexpressing SH-SY5Y-derived cells; format: cell-based
Experimental: as §1
The effect of tetracycline induced PBzR overexpression on apoptogen-driven (C2-ceramide, 80 μM, 8 hrs) caspase activation was examined in a selected, oligoclonal tetracycline-inducible PBzR overexpressing SH-SY5Y-derived cell line (FIG. 20). […] The caspase response also correlated with cell viability determinations (FIG. 22), consistent with presumed caspase roles in apoptotic cascades. […] Western blot analysis of IPBR-1 mitochondrial fractions isolated on metrizamide gradients and normalized on the basis of mitochondrial ETC Complex IV activity (as described above) confirmed a dramatic increase in PBzR expression. No discernible change in Bcl-2 expression levels, however, accompanied the induction of PBzR overexpression.

[3] = biological target: T1, peripheral benzodiazepine receptor (PBR, PBzR) (Homo sapiens, UniProt P30536); experiment: [3H]PK-11195 saturation binding to cell membranes
T1 construct: expressed in transfected cells; membranes
T1 sequence (P30536 whole entry): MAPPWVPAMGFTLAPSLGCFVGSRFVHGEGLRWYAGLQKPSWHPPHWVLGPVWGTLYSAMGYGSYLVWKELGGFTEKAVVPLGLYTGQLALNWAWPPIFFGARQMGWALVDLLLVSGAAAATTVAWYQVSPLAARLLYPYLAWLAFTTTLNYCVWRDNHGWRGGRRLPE

[4] = PK-11195 induced cell death, propidium iodide staining, vector control cells; format: cell-based; settings: human, vector control cells (low Bcl-2 expression), read-out: percent of non-viable cells
Experimental: (§2) This provides apparent evidence for a functional link between PBR and Bcl-2. […] Cell viability was determined by propidium iodide staining cells and quantifying fluorescence with an Fmax™ plate reader (Molecular Devices, Sunnyvale, Calif.) according to the manufacturer's instructions.

[5] = PK-11195 induced cell death, propidium iodide staining, S11 cells; format: cell-based; settings: human, read-out: percent of non-viable cells
Experimental: as §2

[6] = tested on: S11 mitochondria; experiment: cytochrome C release upon calcium induced permeability transition; format: cell-based
[7] = biological target: T2, PBzR (Homo sapiens, UniProt P30536); experiment: displacement of [3H]PK-11195 binding to the S11 PBzR overexpressing clone; settings: read-out: IC50, displacement of [3H]PK-11195; 6 μg S11 protein per data point
T2 construct: expressed in transfected cells; host or cells: S11, clonal SH-SY5Y-derived stably transfected PBzR-overexpressing line
T2 sequence (P30536 whole entry): as above
Experimental: Additional experiments were performed to further characterize the binding of ligand to PBzR.
The S11 cell line was used as a source of PBzR.

[8] = tested on: IPBR-1 cells; experiment: PBzR ligand effect on doxorubicin induced caspase activation in IPBR-1 cells; format: cell-based; settings: induced but not uninduced IPBR-1 cells, dose-dependent
From the text: Accordingly, the present invention provides the unexpected finding that peripheral benzodiazepine ligands may be distinguished on the basis of whether they preferentially alter apoptosis, and whether they preferentially alter a mitochondrial function. Data also indicate that benzodiazepine-related PBR ligands can act as effective anti-apoptotic agents, which may be of benefit in the treatment of certain neuropathologies and/or in chronic inflammatory conditions.

CCCCCCCCCCCCC/C=C/[C@@H](O)[C@H](CO)NC(C)=O [C2-ceramide]
caspase activation, S11 cells versus vector controls ([1]; concentrations of 80 and 100 μM): much greater activation of caspase in vector control cells than in the S11 cells
caspase activation, induced versus uninduced cells ([2]; oligoclonal tetracycline-inducible line, 80 μM, 8 hrs): resistance to ceramide-stimulated caspase activation

CCC(C)N(C)C(=O)c1cc2ccccc2c(-c2ccccc2Cl)n1 (stereo not drawn) [PK-11195, 1-(2-chlorophenyl)-N-methyl-N-(1-methylpropyl)-3-isoquinolinecarboxamide]
Bmax (pmol/mg) ([3]; Jurkat Vector): Not detected
Bmax ([3]; S11): 43 pmol/mg
receptor concentration from saturation binding curves ([3]; S11 SY5Y clone / pooled over-expressors as worded): 25 pmol/mg
Bmax ([3]; SH-SY5Y Vector): 1.8 pmol/mg
binding maximum (BMAX) ([3]; native SY5Y cells): 1.8 pmol/mg
binding maximum (BMAX) ([3]; stable PBR expressing SY5Y cells): 25 ± 1.5 pmol/mg
cytotoxicity at 24 h, 20 µM ([4]; 20 μM): ~10%
cytotoxicity at 24 h, 100 µM ([4]; 100 μM): ~40%
cytotoxicity at 24 h, 100 µM [5]: < 20%
release of cytochrome C from mitochondria [6]: caused a release of cytochrome C

CN1C(=O)CN=C(c2ccc(Cl)cc2)c2cc(Cl)ccc21 [RO 05-4864, 4′chlorodiazepam]
pIC50 [7]: 7.43
effect on doxorubicin induced activation of caspase [8]: protective effect against the doxorubicin induced activation of caspase

Nc1c[n+](N2CCOCC2)no1.[Cl-] [SIN-1, 3-morpholinosydnonimine, HCl]
caspase activation, induced versus uninduced cells ([2]; IPBR-1, 100-400 μM): resistance to caspase activation

COc1cccc2c1C(=O)c1c(O)c3c(c(O)c1C2=O)C[C@@](O)(C(=O)CO)C[C@@H]3O[C@H]1C[C@H](N)[C@H](O)[C@H](C)O1 [doxorubicin]
caspase activation, induced versus uninduced cells ([2]; IPBR-1, 4 μM, 8 hrs): moderated the degree of caspase activation

COc1cc([C@@H]2c3cc4c(cc3[C@@H](O[C@@H]3O[C@@H]5CO[C@@H](C)O[C@H]5[C@H](O)[C@H]3O)[C@H]3COC(=O)[C@H]23)OCO4)cc(OC)c1O [etoposide]
caspase activation, S11 cells versus vector controls ([1]; etoposide 2-6 μM, six hours): caspase activation occurred at a higher rate in S11 cells than in vector controls; also recorded: greater activation of caspase in S11 cells than in vector controls

C/C=C(/C)C(=O)O[C@H]1C(C)=C2[C@H]([C@@H]1OC(=O)CCCCCCC)[C@@](C)(OC(C)=O)C[C@H](OC(=O)CCC)[C@@]1(O)[C@H]2OC(=O)[C@@]1(C)O [thapsigargin]
caspase activation, induced versus uninduced cells ([2]; tetracycline-induced IPBR-1): no reduction in caspase activation
